Measurements taken from US20230312478A1, “HERBICIDAL COMPOUNDS” (SYNGENTA CROP PROTECTION AG, priority 2020, published 2023).

What was measured:
Assay type in all cases: in vivo
Details in all cases: 250 g/ha, evaluated visually after 13 days, scale 0-5
[1] = system: Abutilon theophrasti (ABUTH); assay: Herbicidal efficacy, application pre-emergence; parameters: key: 5 = total damage to plant; 0 = no damage to plant
Method: (§1) Seeds of a variety of test species [Ipomoea hederacea (IPOHE); Zea mays (ZEAMX); Echinochloa crus-galli (ECHCG); Setaria faberi (SETFA); Abutilon theophrasti (ABUTH); Amaranthus retroflexus (AMARE)] were sown in standard sterilised soil in pots. After cultivation for one day (pre-emergence) or after 8 days cultivation (post-emergence) under controlled conditions in a glasshouse (at 24/16° C., day/night; 14 hours light; 65 % humidity), the plants were sprayed with an aqueous spray solution derived from the formulation of the technical active ingredient in acetone / water (50:50) solution containing 0.5% Tween 20 (polyoxyethelyene sorbitan monolaurate, CAS RN 9005-64-5), subsequently diluted in water, and sprayed to give the stated application rate.
(§2) The test plants were then grown under controlled conditions in a glasshouse (at 24/16° C., day/night; 14 hours light; 65 % humidity) and watered twice daily.
(§3) After 13 days for pre- and post-emergence, the test was evaluated visually for percentage phytotoxicity to the plant (where 5 = total damage to plant; 0 = no damage to plant).

[2] = system: Amaranthus retroflexus (AMARE); assay: Herbicidal efficacy, application pre-emergence; parameters: key: 5 = total damage to plant; 0 = no damage to plant
Method: as §1, §2, §3

[3] = system: Echinochloa crus-galli (ECHCG); assay: Herbicidal efficacy, application pre-emergence; parameters: key: 5 = total damage to plant; 0 = no damage to plant
Method: as §1, §2, §3

[4] = system: Ipomoea hederacea (IPOHE); assay: Herbicidal efficacy, application pre-emergence; parameters: key: 5 = total damage to plant; 0 = no damage to plant
Method: as §1, §2, §3

Setaria faberi (SETFA) [5] = assay: Herbicidal efficacy, application pre-emergence; parameters: key: 5 = total damage to plant; 0 = no damage to plant
Method: as §1, §2, §3

Zea mays (ZEAMX) [6] = assay: Herbicidal efficacy, application pre-emergence
Method: as §1, §2, §3

[7] = system: Amaranthus retroflexus (AMARE); assay: Herbicidal efficacy, application post-emergence
Method: as §1, §2, §3

[8] = system: Echinochloa crus-galli (ECHCG); assay: Herbicidal efficacy, application post-emergence
Method: as §1, §2, §3

[9] = system: Ipomoea hederacea (IPOHE); assay: Herbicidal efficacy, application post-emergence
Method: as §1, §2, §3

Setaria faberi (SETFA) [10] = assay: Herbicidal efficacy, application post-emergence
Method: as §1, §2, §3

Zea mays (ZEAMX) [11] = assay: Herbicidal efficacy, application post-emergence
Method: as §1, §2, §3

[12] = system: Abutilon theophrasti (ABUTH); assay: Herbicidal efficacy, application post-emergence; parameters: key: 5 = total damage to plant; 0 = no damage to plant
Method: as §1, §2, §3

| SMILES | phytotoxicity to the plant, ABUTH [1] | phytotoxicity to the plant, AMARE [2] | phytotoxicity to the plant, ECHCG [3] | phytotoxicity to the plant, IPOHE [4] | phytotoxicity to the plant, SETFA (Setaria faberi (SETFA) [5]) | phytotoxicity to the plant, ZEAMX (Zea mays (ZEAMX) [6]) | phytotoxicity to the plant, AMARE [7] | phytotoxicity to the plant, ECHCG [8] | phytotoxicity to the plant, IPOHE [9] | phytotoxicity to the plant, SETFA (Setaria faberi (SETFA) [10]) | phytotoxicity to the plant, ZEAMX (Zea mays (ZEAMX) [11]) | phytotoxicity to the plant, ABUTH [12] |
| --- | --- | --- | --- | --- | --- | --- | --- | --- | --- | --- | --- | --- |
| Cc1c(F)cccc1NC(=O)C1C(=O)N(C)CC1c1cc(C)n(C(F)F)n1 (stereo not drawn) [Compound 9, 4-[1-(difluoromethyl)-5-methyl-pyrazol-3-yl]-N-(3-fluoro-2-methyl-phenyl)-1-methyl-2-oxo-pyrrolidine-3-carboxamide] | 1 | 1 | 5 | 1 | 5 | 3 | 3 | 4 | 3 | 4 | 3 | 0 |
| Cc1cc(C2CN(C)C(=S)C2C(=O)Nc2ccc(F)cc2F)nn1C(F)F (stereo not drawn) [Compound 61, 4-[1-(difluoromethyl)-5-methyl-pyrazol-3-yl]-N-(2,4-difluorophenyl)-1-methyl-2-thioxo-pyrrolidine-3-carboxamide] | 0 | 2 | 5 | 0 | 5 | 1 | 1 | 4 | 1 | 3 | 2 | 0 |
| CCc1cc(C2CN(C)C(=O)C2C(=O)Nc2cccc(F)c2C)nn1C(F)F (stereo not drawn) [Compound 10, 4-[1-(difluoromethyl)-5-ethyl-pyrazol-3-yl]-N-(3-fluoro-2-methylphenyl)-1-methyl-2-oxo-pyrrolidine-3-carboxamide] | 2 | 1 | 5 | 2 | 5 | 4 | 1 | 4 | 4 | 4 | 4 | 0 |
| Cc1cc(C2CN(C)C(=S)C2C(=O)Nc2ccc(F)nc2F)nn1C(F)F (stereo not drawn) [Compound 85, 4-[1-(difluoromethyl)-5-methyl-pyrazol-3-yl]-N-(2,6-difluoro-3-pyridyl)-1-methyl-2-thioxo-pyrrolidine-3-carboxamide] | 0 | 0 | 4 | 0 | 4 | 1 | 1 | 4 | 1 | 2 | 1 | 0 |
